Source: patent US8691761B2, “Somatostatin receptor 2 antagonists” (priority 2006, dated 2014)
Values joined by “and” are separate entries in the source; they are usually repeats but may differ in a detail not shown here. Equal values may be shown once. Read-outs that look alike come from different tables or passages of the source. Bridge positions count the residues as written; N and C are the ends. Square brackets hold non-standard residues; d marks the D form. Peptide text beside a SMILES is read from it. * marks the point of attachment. ξ: configuration not given here. DOTA = O=C(O)CN1CCN(CC(=O)O)CCN(CC(=O)*)CCN(CC(=O)O)CC1; Phe(4-NO2) = N[C@@H](Cc1ccc([N+](=O)[O-])cc1)C(=O)O; dPhe(4-NHCONH2) = NC(=O)Nc1ccc(C[C@@H](N)C(=O)O)cc1; Phe(4-Cl) = N[C@@H](Cc1ccc(Cl)cc1)C(=O)O; ξDihydroorotoyl = O=C1CC(C(=O)*)NC(=O)N1; 2Nal = N[C@@H](Cc1ccc2ccccc2c1)C(=O)O; ξPhe(4-NH2) = Nc1ccc(CC(N)C(=O)O)cc1

Experiments:
hSSTR1 = target: T1, hSSTR1 (Homo sapiens, UniProt P30872); assay: Receptor autoradiography, displacement of 125I-[Leu8,D-Trp22,Tyr25]-SRIF-28 from membrane pellet sections; assay type: binding; conditions: for IC50: Table 3, mean ± SEM when N ≧ 3, read-out: sst1 binding affinity (IC50)
T1 construct: expressed in transfected cells; host or cells: CHO-K1 or CCL39 cells
T1 sequence (P30872 whole entry): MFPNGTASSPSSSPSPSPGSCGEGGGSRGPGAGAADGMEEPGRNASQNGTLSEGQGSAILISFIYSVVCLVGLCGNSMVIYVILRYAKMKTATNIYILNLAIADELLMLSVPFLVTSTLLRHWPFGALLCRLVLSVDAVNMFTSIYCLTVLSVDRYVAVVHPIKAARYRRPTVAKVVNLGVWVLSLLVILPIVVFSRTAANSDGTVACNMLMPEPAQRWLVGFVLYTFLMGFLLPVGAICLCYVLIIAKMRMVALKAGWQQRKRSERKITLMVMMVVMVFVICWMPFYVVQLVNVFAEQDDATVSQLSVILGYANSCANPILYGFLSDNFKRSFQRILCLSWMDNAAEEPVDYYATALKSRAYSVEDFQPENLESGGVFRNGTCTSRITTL
Experimental: (§1) Generally, recombinant cells expressing the receptor are washed and homogenized to prepare a crude protein homogenate in a suitable buffer. In a typical assay, an amount of protein from the cell homogenate is placed into a small volume of an appropriate assay buffer at an appropriate pH. Candidate substances, such as potential SRIF agonists and antagonists, are added to the admixture in convenient concentrations, and the interaction between the candidate substance and the receptor polypeptide is monitored.
(§2) In vitro Bioassay: The effects of the various somatostatin analogs were tested in vitro for their ability to bind to isolated cloned receptors expressed on CHO-K1 cells and CCL39 cells. The molecular cloning of the genes encoding multiple somatostatin receptor subtypes permitted the individual expression of these receptors in mammalian cells and the characterization of their respective pharmacological profiles.
(§3) CHO-K1 cells were grown in Ham's F-12 medium, and CCL39 cells were grown in Dulbecco's modified Eagle's medium/Ham's F-12(1:1) mix, supplemented with 10% fetal bovine serum, 100 U/ml penicillin and 100 μg/ml streptomycin, in humidified air containing 5% CO2 at 37° C. Cells were washed twice with and scraped into ice-cold 0.05 M Tris-HCl (pH 7.4), collected by centrifugation, and homogenized using a rotor/stator/system in the same buffer. After centrifugation at 120 g for 5 min at 4° C., the supernatant was collected and centrifuged again at 48,000 g for 30 min at 4° C. The resulting pellet was resuspended in ice-cold Tris buffer, transferred into a microfuge tube, and centrifuged at 20,000 g for 15 min at 4° C. After withdrawal of the supernatant, the membrane pellet was stored at −80° C.
(§4) Receptor autoradiography was performed on 20 μm thick cryostat sections of the membrane pellets, mounted on microscope slides, and then stored at −20° C. […] Increasing concentrations of the unlabeled peptide were used ranging from 0.1-1000 nM. […] IC50 values were calculated after quantification of the data using a computer-assisted image processing system as known in this art.
(§5) The numbers in parentheses indicate the number of times the particular binding test was carried out.
(§6) Receptor autoradiography. Cell membrane pellets were prepared as previously described, and stored at −80° C. Receptor autoradiography was performed on 20-μm thick cryostat (Microm HM 500, Walldorf, Germany) sections of the membrane pellets, mounted on microscope slides, and then stored at −20° C. […] After a brief dip in distilled water to remove excess salts, the sections were dried quickly and exposed for 1 week to Kodak BioMax MR film. IC50 values were calculated after quantification of the data using a computer-assisted image processing system as described previously. […] (Reubi, J. C. “In vitro identification of vasoactive intestinal peptide receptors in human tumors: Implications for tumor imaging.” J. Nucl. Med. 1995, 36, 1846-1853).
(§7) To investigate their ssts binding properties, the peptides were tested for their ability to bind to cryostat sections from membrane pellets of cells expressing the five human ssts (Table 3).

hSSTR2 = target: T2, hSSTR2 (Homo sapiens, UniProt P30874); assay: as above; assay type: binding
T2 construct: expressed in transfected cells; host or cells: CHO-K1 or CCL39 cells
T2 sequence (P30874 whole entry): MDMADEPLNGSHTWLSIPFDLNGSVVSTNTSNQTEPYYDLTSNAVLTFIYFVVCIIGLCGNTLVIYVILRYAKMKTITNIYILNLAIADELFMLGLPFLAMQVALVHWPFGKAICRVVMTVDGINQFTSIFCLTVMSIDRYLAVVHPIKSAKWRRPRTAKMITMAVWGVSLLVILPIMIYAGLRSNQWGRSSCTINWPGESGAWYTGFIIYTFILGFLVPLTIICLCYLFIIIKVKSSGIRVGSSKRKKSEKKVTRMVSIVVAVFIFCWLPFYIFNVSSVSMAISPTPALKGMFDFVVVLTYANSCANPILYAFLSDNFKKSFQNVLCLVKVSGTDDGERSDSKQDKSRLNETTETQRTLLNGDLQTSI
Experimental: as §1, §2, §3, §4, §5, §6, §7

hSSTR3 = target: T3, hSSTR3 (Homo sapiens, UniProt P32745); assay: as above; assay type: binding; conditions: for IC50: Table 3, mean ± SEM when N ≧ 3, read-out: sst3 binding affinity (IC50)
T3 construct: expressed in transfected cells; host or cells: CHO-K1 or CCL39 cells
T3 sequence (P32745 whole entry): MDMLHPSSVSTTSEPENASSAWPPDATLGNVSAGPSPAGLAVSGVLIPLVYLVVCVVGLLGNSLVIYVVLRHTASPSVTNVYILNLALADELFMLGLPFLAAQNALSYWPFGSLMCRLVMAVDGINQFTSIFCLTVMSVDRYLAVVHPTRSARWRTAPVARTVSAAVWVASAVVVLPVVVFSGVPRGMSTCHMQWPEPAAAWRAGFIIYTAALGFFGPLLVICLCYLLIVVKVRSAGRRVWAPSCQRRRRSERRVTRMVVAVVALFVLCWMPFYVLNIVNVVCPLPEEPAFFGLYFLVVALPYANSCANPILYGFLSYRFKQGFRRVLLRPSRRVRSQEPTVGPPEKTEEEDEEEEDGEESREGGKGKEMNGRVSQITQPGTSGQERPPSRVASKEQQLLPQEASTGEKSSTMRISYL
Experimental: as §1, §2, §3, §4, §5, §6, §7

hSSTR4 = target: T4, hSSTR4 (Homo sapiens, UniProt P31391); assay: as above; assay type: binding; conditions: for IC50: Table 3, mean ± SEM when N ≧ 3, read-out: sst4 binding affinity (IC50)
T4 construct: expressed in transfected cells; host or cells: CHO-K1 or CCL39 cells
T4 sequence (P31391 whole entry): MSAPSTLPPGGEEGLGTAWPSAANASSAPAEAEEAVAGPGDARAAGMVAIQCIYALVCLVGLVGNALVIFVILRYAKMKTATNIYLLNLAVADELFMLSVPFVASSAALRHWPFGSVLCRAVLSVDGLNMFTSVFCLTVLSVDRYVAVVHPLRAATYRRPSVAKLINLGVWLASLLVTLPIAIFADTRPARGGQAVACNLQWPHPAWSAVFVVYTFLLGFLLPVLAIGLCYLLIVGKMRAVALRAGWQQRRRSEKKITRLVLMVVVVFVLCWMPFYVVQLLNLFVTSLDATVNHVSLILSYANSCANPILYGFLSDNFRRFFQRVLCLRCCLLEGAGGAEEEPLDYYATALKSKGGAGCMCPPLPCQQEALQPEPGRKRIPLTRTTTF
Experimental: as §1, §2, §3, §4, §5, §6, §7

hSSTR5 = target: T5, hSSTR5 (Homo sapiens, UniProt P35346); assay: as above; assay type: binding; conditions: for IC50: Table 3, mean ± SEM when N ≧ 3, read-out: sst5 binding affinity (IC50)
T5 construct: expressed in transfected cells; host or cells: CHO-K1 or CCL39 cells
T5 sequence (P35346 whole entry): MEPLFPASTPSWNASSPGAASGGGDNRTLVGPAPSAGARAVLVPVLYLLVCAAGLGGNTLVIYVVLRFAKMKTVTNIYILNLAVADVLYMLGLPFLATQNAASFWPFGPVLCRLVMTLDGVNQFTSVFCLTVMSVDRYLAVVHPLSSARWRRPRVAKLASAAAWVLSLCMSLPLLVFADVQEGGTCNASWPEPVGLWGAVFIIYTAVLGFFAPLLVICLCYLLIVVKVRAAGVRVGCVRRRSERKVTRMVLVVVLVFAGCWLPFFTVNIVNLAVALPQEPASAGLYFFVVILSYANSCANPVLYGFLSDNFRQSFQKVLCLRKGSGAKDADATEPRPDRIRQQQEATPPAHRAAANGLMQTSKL
Experimental: as §1, §2, §3, §4, §5, §6, §7

human sst2A receptor = target: T6, human sst2A receptor (Homo sapiens, UniProt P30874); assay: Immunofluorescence-based sst2 internalization assay in HEK-sst2 cells; assay type: cell-based; conditions: for sst2-internalization tested in vitro in HEK-sst2 cells (function): n ≧ 2
T6 construct: expressed in transfected cells; host or cells: HEK293 (HEK-sst2)
T6 sequence (P30874 whole entry): as the sequence (P30874 whole entry) above
Experimental: Immunofluorescence-based sst2 Internalization Assay. Immunofluorescence microscopy-based internalization assay for sst2 was performed with HEK-sst2 using the sst2-specific antibody R2-88 as described elsewhere herein. HEK-sst2 cells were treated either with vehicle alone, the sst2 agonist [Tyr^3]-octreotide at a concentration of 100 nM, [Tyr^3]-octreotide at a concentration of 100 nM in the presence of an excess of the SRIF analogues to be tested (100 times the concentration of [Tyr^3]-octreotide), or with the SRIF analogues to be tested alone at a concentration of 10 μM, and then processed for immunofluorescence microscopy as described previously.

sst2 = sst2 (Homo sapiens, UniProt P30874); assay: Calcium release assay in HEK-sst2 cells (Fluo-4NW); assay type: cell-based; parameters: expressed in transfected cells; host or cells: HEK293 (HEK-sst2); conditions: n ≧ 2
sst2, sequence (P30874 whole entry): as above
Experimental: Calcium release assay. Intracellular calcium release was measured in HEK-sst2 using the Fluo-4NW Calcium Assay kit as described previously (Magrys, et al. “The role of anti-alpha-enolase autoantibodies in pathogenicity of autoimmune-mediated retinopathy.” J. Clin. Immunol. 2007, 27, 181-192; Michel et al. “The Nef protein of human immunodeficiency virus is a broad-spectrum modulator of chemokine receptor cell surface levels that acts independently of classical motifs for receptor endocytosis and Galphai signaling.” Mol. Biol. Cell. 2006, 17, 3578-3590). In brief, HEK-sst2 cells were seeded (25,000 cells per well) in poly-D-lysine (20 μg/mL) coated 96 well plates and cultured for 1 day at 37° C. and 5% CO2 in culture medium. At the day of the experiment, the cells were washed with assay buffer (1×HBSS, 20 mM HEPES) containing 2.5 mM probenecid, and then loaded with 100 μL/well Fluo-4NW dye in assay buffer containing 2.5 mM probenecid for 30 min at 37° C. and 5% CO2 and then for further 30 min at room temperature. To measure the intracellular calcium mobilization after stimulation with the SRIF analogues to be tested, the dye-loaded cells were transferred to a SpectraMax M2^e (Molecular Devices, Sunnyvale, Calif.). Intracellular calcium mobilization was recorded in a kinetic for 60 sec at room temperature monitoring fluorescence emission at 520 nm (with λex=485 nm) in the presence of the analogues at the concentrations indicated. Maximum fluorescence (Fmax) was measured after the addition of 25 μM ionomycin. Baseline (control) measurements were taken for dye-loaded, untreated cells. Data are shown as percentage of Fmax (% Fmax) as reported previously. (Magrys, et al. J. Clin. Immunol. 2007, 27, 181-192; Michel et al. Mol. Biol. Cell. 2006, 17, 3578-3590). All experiments were repeated at least three times in triplicate.

[1] = Table 3, mean ± SEM when N ≧ 3, read-out: sst2 binding affinity (IC50)

IC50 (hSSTR3) [nM] | sst2-internalization tested in vitro in HEK-sst2 cells (function) (human sst2A receptor) | Calcium release tested in vitro in HEK-sst2 cells (function) (sst2) | Compound | also measured
124 ± 53 | Antagonist | Antagonist | C[C@@H](O)[C@@H]1NC(=O)[C@H](CCCCN)NC(=O)[C@@H](Cc2c[nH]c3ccccc23)NC(=O)[C@H](Cc2ccc(NC(N)=O)cc2)NC(=O)[C@H](NC(=O)[C@H](Cc2ccc(Cl)cc2)NC(=O)CCNC(=O)CN2CCN(CC(=O)O)CCN(CC(=O)O)CCN(CC(=O)O)CC2)CSSC[C@@H](C(=O)N[C@@H](Cc2ccc3ccccc3c2)C(N)=O)NC1=O [compound 15, DOTA-βAla-Cpa-c[DCys-Aph(Cbm)-DTrp-Lys-Thr-Cys]-2Nal-NH2] | IC50 (hSSTR1): > 1000 nM; IC50 (hSSTR2; [1]): 46 ± 13 nM; IC50 (hSSTR4): > 1000 nM; IC50 (hSSTR5): > 1000 nM
 | Antagonist | Antagonist | C[C@@H](O)[C@@H]1NC(=O)[C@H](CCCCN)NC(=O)[C@@H](Cc2ccc(NC(N)=O)cc2)NC(=O)C(Cc2ccc(NC(=O)C3CC(=O)NC(=O)N3)cc2)NC(=O)[C@H](NC(=O)[C@@H](N)Cc2ccc(Cl)cc2)CSSC[C@@H](C(=O)N[C@@H](Cc2ccc3ccccc3c2)C(N)=O)NC1=O (stereo partly drawn) [compound 29, H2N-Cpa-c[DCys-Aph(Hor)-DAph(Cbm)-Lys-Thr-Cys]-2Nal-NH2] (H-[Phe(4-Cl)][dC][ξPhe(4-NH2)](ξDihydroorotoyl)[dPhe(4-NHCONH2)]KTC[2Nal]-NH2; disulfide 2-7) | 
384 | Antagonist |  | C[C@@H](O)[C@@H]1NC(=O)[C@H](CCCCN)NC(=O)[C@@H](Cc2ccc(NC(N)=O)cc2)NC(=O)[C@H](Cc2ccc(O)cc2)NC(=O)[C@H](NC(=O)[C@@H](N)Cc2ccc([N+](=O)[O-])cc2)CSSC[C@@H](C(=O)N[C@@H](Cc2ccc3ccccc3c2)C(N)=O)NC1=O [compound 4, H2N-pNO2Phe-c[DCys-Tyr-DAph(Cbm)-Lys-Thr-Cys]-2Nal-NH2] (H-[Phe(4-NO2)][dC]Y[dPhe(4-NHCONH2)]KTC[2Nal]-NH2; disulfide 2-7) | IC50 (hSSTR1): > 1000 nM; IC50 (hSSTR2; [1]): 2.6 nM; IC50 (hSSTR4): > 1000 nM; IC50 (hSSTR5): > 1000 nM
 | Antagonist | Antagonist | C[C@@H](O)[C@@H]1NC(=O)[C@H](CCCCN)NC(=O)[C@@H](Cc2c[nH]c3ccccc23)NC(=O)[C@H](Cc2ccc(NC(N)=O)cc2)NC(=O)[C@H](NC(=O)[C@@H](N)Cc2ccc(Cl)cc2)CSSC[C@@H](C(=O)N[C@@H](Cc2ccc3ccccc3c2)C(N)=O)NC1=O [compound 12, H2N-Cpa-c[DCys-Aph(Cbm)-DTrp-Lys-Thr-Cys]-2Nal-NH2] | 

More lines, now with the values behind:

Compound | IC50 (hSSTR3) [nM] | sst2-internalization tested in vitro in HEK-sst2 cells (function) (human sst2A receptor) | Calcium release tested in vitro in HEK-sst2 cells (function) (sst2) | also measured
C[C@@H](O)[C@@H]1NC(=O)[C@H](CCCCN)NC(=O)[C@@H](Cc2ccc(NC(N)=O)cc2)NC(=O)[C@H](Cc2ccc(O)cc2)NC(=O)[C@H](NC(=O)[C@H](Cc2ccc(Cl)cc2)NC(=O)CN2CCN(CC(=O)O)CCN(CC(=O)O)CCN(CC(=O)O)CC2)CSSC[C@@H](C(=O)N[C@@H](Cc2ccc3ccccc3c2)C(N)=O)NC1=O [Peptide No. 28, DOTA-Cpa-c[DCys-Tyr-DAph(Cbm)-Lys-Thr-Cys]-2Nal-NH2] ({DOTA}-[Phe(4-Cl)][dC]Y[dPhe(4-NHCONH2)]KTC[2Nal]-NH2; disulfide 2-7) |  | Antagonist | Antagonist | effect on binding of the SRIF-28 radioligand to SSTR1 (hSSTR1; 100 nM): minimal effects; IC50 (hSSTR2; Table 1, inhibition of radioligand binding to cloned human receptor, read-out: IC50 hSSTR2): ~1.8 nM and 1.8 nM; effect on binding of the SRIF-28 radioligand to SSTR3 (hSSTR3; 100 nM): minimal effects; effect on binding of the SRIF-28 radioligand to SSTR4 (hSSTR4; 100 nM): minimal effects; effect on binding of the SRIF-28 radioligand to SSTR5 (hSSTR5; 100 nM): minimal effects
C[C@@H](O)[C@@H]1NC(=O)[C@H](CCCCN)NC(=O)[C@@H](Cc2c[nH]c3ccccc23)NC(=O)[C@H](N(C)C(=O)c2ccccc2)NC(=O)[C@H](NC(=O)[C@@H](N)Cc2ccc(Cl)cc2)CSSC[C@@H](C(=O)N[C@@H](Cc2ccc3ccccc3c2)C(N)=O)NC1=O [compound 9, H2N-Cpa-c[DCys-L-Agl(NMe.benzoyl)-DTrp-Lys-Thr-Cys]-2Nal-NH2] |  | Antagonist |  | loss of binding affinity for sst2 as compared to 7 (hSSTR2): 3 fold
CC(=O)N[C@@H](Cc1ccc([N+](=O)[O-])cc1)C(=O)N[C@@H]1CSSC[C@@H](C(=O)N[C@H](Cc2ccc(O)cc2)C(N)=O)NC(=O)[C@H]([C@@H](C)O)NC(=O)[C@H](CCCCN)NC(=O)[C@@H](Cc2c[nH]c3ccccc23)NC(=O)[C@H](Cc2ccc(O)cc2)NC1=O [compound 1, Ac-pNO2Phe-c[DCys-Tyr-DTrp-Lys-Thr-Cys]-DTyr-NH2, reference compound] | > 1000 | Antagonist |  | 
[Tyr^3]-octreotide [reference compound] |  |  | agonistic effect | sst2 internalization, given alone (human sst2A receptor; FIG. 2, antagonists at 10 μM): can induce sst2 internalization
